This is an account of results in paper PMC8026324, “In Vitro Antiplasmodial, Heme Polymerization, and Cytotoxicity of Hydroxyxanthone Derivatives” (Journal of Tropical Medicine, 2021).

Like-named read-outs stand apart in the source and are kept apart here.

In experiment [1] the test system is Plasmodium falciparum 3D-7 (chloroquine-sensitive strain). Put plainly: In vitro antiplasmodial activity assay, microscopic method, strain 3D-7. The note with it: Plasmodium falciparum. The class given is cell-based. The protocol:
(§1) The test of antiplasmodial activity began with the culture of P. falciparum 3D-7 and FCR-3 using the modified Trager and Jensen method. The plasmodium was cultured in human O red blood cells diluted to 3% haematocrit in RPMI 1640 medium complemented with 10% human O serum. The medium was made by adding 10.43 g of powder RPMI 1640, 6 g HEPES, 2 g NaHCO3, 25 mg gentamycin, and sterile distilled water up to 1 L. The medium pH was adjusted so that it reached ±7.2. It was sterilized using a 0.22 μm filter and stored at 4°C. The complete plasmodium culture medium was made by adding human serum with a concentration of 10% in the medium. The plasmodium culture was incubated in candle jar in an incubator with a temperature of 37°C and was observed every 24 hours.
(§2) The plasmodium was synchronized to obtain the ring stage by adding 5% of D-sorbitol. The plasmodium was transferred from culture flask to a conical tube, and then it was centrifuged with a speed of 1000 rpm for 10 minutes. After the supernatant was disposed, the sterile 5% sorbitol was added and incubated for 10 minutes at a temperature of 37°C. The plasmodium suspension was centrifuged again; the supernatant was disposed and the plasmodium was washed by adding culture medium. Then, the plasmodium suspension was centrifuged again, and the supernatant was discarded, resulting in a plasmodium in ring stage only. The parasitemia was calculated from a thin blood preparation. The test used 1% parasitemia at 2% haematocrit in RPMI medium which complemented with 10% human O serum.
(§3) Each testing compound was dissolved in RPMI medium. The testing compound in various concentrations with volume of 100 μL was incorporated into the 96-well microplate, and then 100 μL of Plasmodium suspension was added. Each series of concentrations was replicated three times. The microplate was incubated at a temperature of 37°C for 72 hours. At the end of the incubation, a thin blood smear was made using 10% Giemsa stain and observed under a light microscope at 1000x magnification. The percentage of parasitemia (counting a minimum of 1,000 erythrocytes) was calculated from the preparation of thin blood and then used to calculate the percentage of plasmodium growth inhibition. […] Antiplasmodial activity is expressed as IC50, which is the concentration of a compound that is required for 50% inhibition of plasmodium growth. The IC50 value was calculated by probit analysis using SPSS software (IBM Corp., Chicago). The lower the IC50 value obtained, the greater the antiplasmodial activity.

For experiment [2], the system named is formation of β-hematin (heme polymerization). The note with it: read-out: IC50 of chloroquine for heme polymerization inhibition, reference value; threshold reference value; cited from earlier work.
Experiment [3] shares this test system. Put plainly: In vitro heme polymerization inhibitory activity (HPIA) assay. The class given is biochemical. On the procedure: The heme polymerization inhibitory activity (HPIA) was conducted according to Basilico et al.'s modified method. The 100 μL of 1 mM hematin in 0.2 M NaOH was added into a microtube. […] Distilled water was used as a negative control. The 50 μL solution of glacial acetic acid (pH 2.6) was added into the microtube to initiate the polymerization reaction and incubated at a temperature of 37°C for 24 hours. Microtubes were centrifuged at 8000 rpm for 10 minutes and the supernatant was discarded and then washed three times using the 200 μL dimethyl sulfoxide (DMSO).Then, the deposition of the hematin crystal was dissolved with 200 μL of 0.1 M NaOH and 100 μL of solution was added into the 96-well microplate.
Absorbance was read using ELISA reader at λ 405 nm. A standard curve was made to illustrate the relationship between the concentration of hematin and its absorbance. The various concentrations of hematin (250; 125; 62.5; 31.25; 15.6; 7.8; and […]) were used to make the standard curve. The heme polymerization inhibition was expressed as IC50, which is the concentration of testing compounds that can inhibit 50% of the formation of β-hematin. The IC50 value was calculated by probit analysis using SPSS software (IBM Corp., Chicago).

The test system of experiment [4] is Plasmodium falciparum FCR-3 (chloroquine-resistant strain). Put plainly: In vitro antiplasmodial activity assay, microscopic method, strain FCR-3. The note with it: Plasmodium falciparum. The class given is cell-based. On the procedure:
as §1, §2, §3

The mark [5] stands for this setting: read-out: Growth inhibition of P. falciparum Strain 3D-7.
[6] abbreviates: FCR3, read-out: Growth inhibition of P. falciparum Strain FCR-3.

As to `CCN(CC)CCCC(C)Nc1ccnc2cc(Cl)ccc12` (stereo not drawn) [Chloroquine, reference compound], the IC50 in experiment [1] (72 h, read-out: IC50 on P. falciparum 3D-7) was 10 ± 1 nM; in experiment [2] it was 37.5 mM; in experiment [3] (24 hours, 37°C, glacial acetic acid pH 2.6), 1.48 mM; in experiment [4] (FCR3, 72 h, read-out: IC50 on P. falciparum FCR-3), 110 ± 52 nM. In addition, the inhibition at 0.008 µM worked out at 54.4 ± 12.4% in experiment [1] (setting [5]) and 18.7 ± 9.23% in experiment [4] (setting [6]). For the same compound, the inhibition at 0.016 µM came to 96.4 ± 1.13% in experiment [1] (setting [5]) and 78.6 ± 4.51% in experiment [4] (setting [6]). Moreover, the inhibition at 0.023 µM was determined as 96.6 ± 1.33% in experiment [1] (setting [5]) and 79.9 ± 3.86% in experiment [4] (setting [6]). Moreover, the values for the inhibition at 0.029 µM in experiment [1] (setting [5]) and in experiment [4] (setting [6]) were 97.49 ± 0.517% and 82.6 ± 2.94%, respectively. Further, the inhibition at 0.037 µM stood at 97.77 ± 0.69% in experiment [1] (setting [5]) and 84.2 ± 2.45% in experiment [4] (setting [6]). Moreover, the “Inhibition of β-hematin” value in experiment [3] (compound 0.601 mM) was 29.080%; in experiment [3] (compound 1.221 mM), 47.315%; in experiment [3] (compound 2.423 mM), 56.379%; in experiment [3] (compound 4.846 mM), 79.906%; in experiment [3] (compound 9.692 mM) it was 88.604%. Moreover, the β-Hematin formed in experiment [3] (compound 0.601 mM) is reported as 77.787 mM; in experiment [3] (compound 1.221 mM), 57.787 mM; in experiment [3] (compound 2.423 mM) it was 47.845 mM; in experiment [3] (compound 4.846 mM) it was 22.040 mM; in experiment [3] (compound 9.692 mM) it was 12.500 mM.

By IC50 is commonly meant the concentration needed to halve the response being measured. In general, inhibition refers to how much of the control response was suppressed.
